Experimental data from the NIST ThermoML archive (doi:10.1021/je700260f).

Details: 333.15 K, Liquid, Vibrating tube method

FC(C(F)(F)F)C(F)(F)F [1,1,1,2,3,3,3-heptafluoropropane]
Details	mass density [kg/m3]
6413 kPa	1291.3
6442 kPa	1291.6
6789 kPa	1295.3
6821 kPa	1295.6
6856 kPa	1296
6887 kPa	1296.2
6965 kPa	1297
7009 kPa	1297.4
8110 kPa	1308.2
8143 kPa	1308.5
8176 kPa	1308.8
8204 kPa	1309.2
8236 kPa	1309.5
8273 kPa	1309.8
8298 kPa	1310.1
8328 kPa	1310.3
8357 kPa	1310.6
8395 kPa	1311
8425 kPa	1311.2
8467 kPa	1311.5
8497 kPa	1311.8
8538 kPa	1312.3
8560 kPa	1312.4
8592 kPa	1312.8
8622 kPa	1313
8665 kPa	1313.3
8701 kPa	1313.7
8732 kPa	1313.9
8768 kPa	1314.3
8804 kPa	1314.6
8846 kPa	1314.9
8884 kPa	1315.2
8912 kPa	1315.8
8940 kPa	1316
9044 kPa	1316.8
9087 kPa	1317.2
9121 kPa	1317.5
9164 kPa	1317.9
9196 kPa	1318
9219 kPa	1318.3
9251 kPa	1318.6
9270 kPa	1318.8
9294 kPa	1319
9321 kPa	1319.3
9349 kPa	1319.5
9370 kPa	1319.7
9402 kPa	1319.9
9422 kPa	1320.1
9455 kPa	1320.4
9483 kPa	1320.7
9512 kPa	1320.9
9533 kPa	1321.1
9552 kPa	1321.1
9578 kPa	1321.4
9599 kPa	1321.5
9631 kPa	1321.9
9652 kPa	1322.1
9684 kPa	1322.3
9713 kPa	1322.7
9737 kPa	1322.8
10680 kPa	1330.6
10703 kPa	1330.9
10737 kPa	1331
10763 kPa	1331.3
10786 kPa	1331.6
10813 kPa	1331.6
11004 kPa	1333.2
11030 kPa	1333.5
11055 kPa	1333.5
11083 kPa	1333.8
11507 kPa	1337.2
11567 kPa	1337.7
11594 kPa	1337.8
11620 kPa	1338
11651 kPa	1338.3
11678 kPa	1338.4
11705 kPa	1338.6
11734 kPa	1338.8
11757 kPa	1339
12501 kPa	1344.5
12533 kPa	1344.8
12561 kPa	1345
12589 kPa	1345.2
12616 kPa	1345.4
12648 kPa	1345.7
12675 kPa	1345.9
12698 kPa	1346.1
12730 kPa	1346.2
12754 kPa	1346.4
12789 kPa	1346.6
12823 kPa	1347
12846 kPa	1347.1
13551 kPa	1352.2
13574 kPa	1352.3
13601 kPa	1352.5
13746 kPa	1353.4
13772 kPa	1353.6
13801 kPa	1353.7
13830 kPa	1354.1
13863 kPa	1354.3
13893 kPa	1354.5
14170 kPa	1356.5
14195 kPa	1356.8
